In the Kinase Knowledgebase extract (Sharma et al. 2016):
pIC50: −log10 of the molar value.

Molecular target: MAPK14 (human) (UniProt Q16539)
Test: Inhibition of MAPK14 Kinase Activity

Sequence of MAPK14 (human) (Q16539 whole entry, looked up): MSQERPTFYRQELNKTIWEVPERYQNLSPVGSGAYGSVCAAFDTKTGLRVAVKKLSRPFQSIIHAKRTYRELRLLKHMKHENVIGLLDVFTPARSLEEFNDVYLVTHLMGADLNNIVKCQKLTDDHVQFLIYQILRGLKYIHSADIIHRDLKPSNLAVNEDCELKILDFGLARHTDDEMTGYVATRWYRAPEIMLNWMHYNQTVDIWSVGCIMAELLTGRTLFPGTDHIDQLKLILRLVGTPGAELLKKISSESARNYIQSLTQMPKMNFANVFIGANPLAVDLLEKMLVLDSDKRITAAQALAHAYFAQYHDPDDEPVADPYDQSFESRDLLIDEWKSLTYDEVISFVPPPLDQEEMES

pIC50, ≥ 6.00:
CC(C)NC(=O)c1csc(-c2c(-c3ccc(F)cc3)noc2CNC(=O)c2ccc([N+](=O)[O-])cc2Cl)n1
CCC(=O)C(=O)NCc1nc(-c2ccc(F)cc2)c(-c2nc(C(=O)NC(C)C)cs2)o1
CC(C)NC(=O)c1csc(-c2c(-c3ccc(F)cc3)noc2CN2CCNCC2)n1
CC(C)NC(=O)c1csc(-c2oc(CNC(=O)c3ccc(F)c([N+](=O)[O-])c3)nc2-c2ccc(F)cc2)n1
CC(C)NC(=O)c1csc(-c2c(-c3ccc(F)cc3)noc2CNCCN2CCCC2)n1
COc1ccc(CNC(=O)c2csc(-c3c(-c4ccc(F)cc4)n[nH]c3C3CCNCC3)n2)cc1
CC(C)NC(=O)c1csc(-c2oc(CNC(=O)Cc3c(F)cccc3F)nc2-c2ccc(F)cc2)n1
Cc1nc(-c2ccc(F)cc2)c(-c2nc(C(=O)N[C@H](C)c3ccccc3)cs2)s1
Cc1nc(-c2ccc(F)cc2)c(-c2nc(C(=O)NC(C)CO)cs2)s1 (centres undefined)
Cc1nc(-c2ccc(F)cc2)c(-c2nc(C(=O)Nc3ccc4c(c3)OCO4)cs2)s1
C#CCNC(=O)c1csc(-c2c(-c3ccc(F)cc3)ncn2C2CCN(C(=O)CO)CC2)n1
CC(C)NC(=O)c1csc(-c2oc(CN3CCN(C(=O)c4ccccc4O)CC3)nc2-c2ccc(F)cc2)n1
CC(=O)N1CCC(c2onc(-c3ccc(F)cc3)c2-c2nc(C(=O)NC(C)C)cs2)CC1
C#CCNC(=O)c1csc(-c2sc(C)nc2-c2ccc(F)cc2)n1
CC(C)NC(=O)c1csc(-c2c(-c3ccc(F)cc3)n[nH]c2C2CCN(C(=O)C=O)CC2)n1
CC(C)NC(=O)c1csc(-c2oc(CNC(=O)c3c(F)c(F)c(F)c(F)c3F)nc2-c2ccc(F)cc2)n1
CC(C)NC(=O)c1csc(-c2oc(CN3CCOCC3)nc2-c2ccc(F)cc2)n1
CC(=O)Nc1cccc(C(=O)N2CCN(Cc3nc(-c4ccc(F)cc4)c(-c4nc(C(=O)NC(C)C)cs4)o3)CC2)c1
CC(C)NC(=O)c1csc(-c2oc(CN3CCN(C(=O)C=O)CC3)nc2-c2ccc(F)cc2)n1
CC(C)NC(=O)n1ccc(-c2c(-c3ccc(F)cc3)noc2CN(C)C)n1
Cc1nc(-c2ccc(F)cc2)c(-c2nc(C(=O)NCc3cccc(F)c3)cs2)s1
CC(C)NC(=O)c1csc(-c2oc(CN3CCN(C(=O)C(Cc4ccc(O)cc4)NC(=O)OC(C)(C)C)CC3)nc2-c2ccc(F)cc2)n1 (centres undefined)
COc1cccc(OC)c1C(=O)NCc1nc(-c2ccc(F)cc2)c(-c2nc(C(=O)NC(C)C)cs2)o1
C#CCNC(=O)c1csc(-c2[nH]c(CN3CCNCC3)nc2-c2ccc(F)cc2)n1
CC(C)NC(=O)c1csc(-c2oc(CN3CCN(C(=O)c4cc(F)c(F)cc4[N+](=O)[O-])CC3)nc2-c2ccc(F)cc2)n1
CC(C)NC(=O)c1csc(-c2oc(CNCCc3ccc(O)cc3)nc2-c2ccc(F)cc2)n1
CC(C)NC(=O)n1ccc(-c2c(-c3ccc(F)cc3)noc2CN2CCOCC2)n1
Cc1nc(-c2ccc(F)cc2)c(-c2nc(C(=O)NCCc3cccc(F)c3)cs2)s1
CC(C)NC(=O)c1csc(-c2oc(CNC(=O)Cc3cccc4ccccc34)nc2-c2ccc(F)cc2)n1
Cc1nc(-c2ccc(F)cc2)c(-c2nc(C(=O)NC(C)C)cs2)[nH]1
CC(C)NC(=O)c1csc(-c2oc(CN3CCN(C(=O)c4ccncc4)CC3)nc2-c2ccc(F)cc2)n1
Cc1nc(-c2ccc(F)cc2)c(-c2nc(C(=O)NCCNC(=O)OC(C)(C)C)cs2)s1
COc1ccc(C(=O)N2CCN(Cc3nc(-c4ccc(F)cc4)c(-c4nc(C(=O)NC(C)C)cs4)o3)CC2)c(O)c1
Cc1nc(-c2ccc(F)cc2)c(-c2nc(C(=O)NCCCO)cs2)s1
Cc1nc(-c2ccc(F)cc2)c(-c2nc(C(=O)NCc3ccccc3C)cs2)s1
CC(C)NC(=O)c1csc(-c2oc(CNC(=O)c3cc(F)ccc3[N+](=O)[O-])nc2-c2ccc(F)cc2)n1
Cc1nc(-c2ccc(F)cc2)c(-c2nc(C(=O)NCCN3CCCC3)cs2)s1
Cc1nc(-c2ccc(F)cc2)c(-c2nc(C(=O)N3CCCC4CCCCC43)cs2)s1 (centres undefined)
CC(C)NC(=O)c1csc(-c2c(-c3ccc(F)cc3)n[nH]c2C2CCN(C(=O)c3ccc(C(C)(C)C)cc3)CC2)n1
COc1ccc(NC(=O)c2csc(-c3sc(C)nc3-c3ccc(F)cc3)n2)c(C)c1
COc1cc(C(=O)NCc2nc(-c3ccc(F)cc3)c(-c3nc(C(=O)NC(C)C)cs3)o2)cc(OC)c1O
CC(C)NC(=O)c1csc(-c2c(-c3ccc(F)cc3)n[nH]c2C2CCN(C(=O)c3cc(Cl)ccn3)CC2)n1
CONC(=O)c1csc(-c2c(-c3ccc(F)cc3)n[nH]c2C2CCNCC2)n1
CC(C)NC(=O)c1csc(-c2oc(CNC(=O)C3CCCO3)nc2-c2ccc(F)cc2)n1 (centres undefined)
COc1ccccc1CCNC(=O)c1csc(-c2sc(C)nc2-c2ccc(F)cc2)n1
CC(C)NC(=O)c1csc(-c2oc(CNC(=O)c3cc(Cl)ccc3Cl)nc2-c2ccc(F)cc2)n1
CC(C)NC(=O)c1csc(-c2oc(CNC(=O)C(Cc3ccc(O)cc3)NC(=O)OC(C)(C)C)nc2-c2ccc(F)cc2)n1 (centres undefined)
CC(C)NC(=O)c1csc(-c2c(-c3ccc(F)cc3)n[nH]c2C2CCN(C(=O)C3CCCO3)CC2)n1 (centres undefined)
CC(C)NC(=O)c1csc(-c2oc(CN3CCN(C(=O)c4ccc(O)cc4O)CC3)nc2-c2ccc(F)cc2)n1
Cc1nc(-c2ccc(F)cc2)c(-c2nc(C(=O)NCCC(C)C)cs2)s1
CC(C)NC(=O)c1csc(-c2oc(CN3CCN(C(=O)c4ccc(Cl)cc4O)CC3)nc2-c2ccc(F)cc2)n1
CC(C)NC(=O)c1csc(-c2c(-c3ccc(F)cc3)n[nH]c2C2CCN(C(=O)c3ccc(C=O)cc3)CC2)n1
COc1cc(CNC(=O)c2csc(-c3sc(C)nc3-c3ccc(F)cc3)n2)cc(OC)c1
COCCNC(=O)c1csc(-c2sc(C)nc2-c2ccc(F)cc2)n1
CC(C)NC(=O)c1csc(-c2c(-c3ccc(F)cc3)noc2C2CCNCC2)n1
CC(C)NC(=O)c1csc(-c2oc(CNC(C)CO)nc2-c2ccc(F)cc2)n1 (centres undefined)
CC(C)NC(=O)c1csc(-c2oc(CNC3CCN(Cc4ccccc4)C3)nc2-c2ccc(F)cc2)n1 (centres undefined)
Cc1cccc([N+](=O)[O-])c1C(=O)N1CCN(Cc2nc(-c3ccc(F)cc3)c(-c3nc(C(=O)NC(C)C)cs3)o2)CC1
CC(C)NC(=O)c1csc(-c2c(-c3ccc(F)cc3)noc2CN2CCCC2CO)n1 (centres undefined)
CCNC(=O)c1csc(-c2c(-c3ccc(F)cc3)n[nH]c2C)n1
CC(=O)N1CCC(n2cnc(-c3ccc(Cl)cc3)c2-c2nc(C(=O)NC(C)C)cs2)CC1
Cc1nc(-c2ccc(F)cc2)c(-c2nc(C(=O)Nc3c(C)cccc3C(C)(C)C)cs2)s1
Cc1cccc(C(=O)NCc2nc(-c3ccc(F)cc3)c(-c3nc(C(=O)NC(C)C)cs3)o2)c1[N+](=O)[O-]
CC(C)NC(=O)c1csc(-c2oc(CN3CCN(C(=O)CCc4ccccc4O)CC3)nc2-c2ccc(F)cc2)n1
CC(C)NC(=O)c1csc(-c2oc(CN3CCN(C(=O)c4cnc(O)c(Cl)c4)CC3)nc2-c2ccc(F)cc2)n1
CC(C)NC(=O)c1csc(-c2oc(CBr)nc2-c2ccc(F)cc2)n1
Cc1nc(-c2ccc(F)cc2)c(-c2nc(C(=O)NCCCCO)cs2)s1
C#CCNC(=O)c1csc(-c2c(-c3ccc(F)cc3)n[nH]c2C2CCNCC2)n1
CC(C)NC(=O)c1csc(-c2c(-c3ccc(F)cc3)noc2CNC(=O)C(F)(F)F)n1
O=C(NC1CCCCC1)c1csc(-c2c(-c3ccc(F)cc3)ncn2C2CCNCC2)n1
CC(C)NC(=O)c1csc(-c2oc(CN3CCN(C(=O)c4cccc5ccccc45)CC3)nc2-c2ccc(F)cc2)n1
COc1ccc(C=CC(=O)N2CCN(Cc3nc(-c4ccc(F)cc4)c(-c4nc(C(=O)NC(C)C)cs4)o3)CC2)cc1O
CC(C)NC(=O)c1csc(-c2oc(CN3CCN(C(=O)c4cc(O)c(O)c(O)c4)CC3)nc2-c2ccc(F)cc2)n1
CC(C)NC(=O)c1csc(-c2oc(CNC(=O)c3ccc(Cl)cc3[N+](=O)[O-])nc2-c2ccc(F)cc2)n1
CC(C)NC(=O)c1csc(-c2oc(CN3CCN(C(=O)c4cn(C)cn4)CC3)nc2-c2ccc(F)cc2)n1
CC(C)NC(=O)c1csc(-c2c(-c3ccc(F)cc3)n[nH]c2C2CCN(C(=O)C(F)(F)F)CC2)n1
CC(C)NC(=O)c1csc(-c2oc(CNC(=O)c3cccnc3Cl)nc2-c2ccc(F)cc2)n1
Cc1onc(-c2ccccc2)c1-c1ccn(C(=O)NC(C)C)n1
Cc1nc(-c2ccc(F)cc2)c(-c2nc(C(=O)N3CCCC3CO)cs2)s1 (centres undefined)
N#CCNC(=O)c1csc(-c2c(-c3ccc(F)cc3)n[nH]c2C2CCNCC2)n1
CC(C)Cc1ccc(C(C)C(=O)N2CCN(Cc3nc(-c4ccc(F)cc4)c(-c4nc(C(=O)NC(C)C)cs4)o3)CC2)cc1 (centres undefined)
Cc1nc(-c2ccc(F)cc2)c(-c2nc(C(=O)NCc3ccco3)cs2)s1
Cc1nc(-c2ccc(F)cc2)c(-c2nc(C(=O)N[C@H](CO)Cc3ccccc3)cs2)s1
Cc1nc(-c2ccc(F)cc2)c(-c2nc(C(=O)N[C@@H](C)c3ccccc3)cs2)s1
CC(C)NC(=O)c1csc(-c2oc(CNC(=O)c3cnc[nH]3)nc2-c2ccc(F)cc2)n1
CC(C)NC(=O)c1csc(-c2oc(CN3CCN(C(=O)c4cnc[nH]4)CC3)nc2-c2ccc(F)cc2)n1
CC(C)NC(=O)c1csc(-c2oc(CN3CCN(C(=O)c4ccc5ncccc5c4)CC3)nc2-c2ccc(F)cc2)n1
Cc1nc(-c2ccc(F)cc2)c(-c2nc(C(=O)NCc3ccc(F)cc3)cs2)s1
COc1cc(OC)c(C(=O)N2CCN(Cc3nc(-c4ccc(F)cc4)c(-c4nc(C(=O)NC(C)C)cs4)o3)CC2)c(OC)c1
